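1) Cells in 96-well plates. 2) Compound, 48 h, 5 concentrations. 3) Linear interpolation between surrounding doses. 4) Unreached endpoint = highest concentration. The concentration for 50% growth inhibition is given as GI50. TGI marks complete inhibition of growth.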
What was measured:
Assay in all cases: DTP human tumour cell line panel, 48 h
HL-60(TB) leukemia = test system: HL-60(TB) leukemia
A498 renal = test system: A498 renal
HT29 colon = test system: HT29 colon
RXF 393 renal = test system: RXF 393 renal
SK-MEL-5 melanoma = test system: SK-MEL-5 melanoma
MDA-MB-231 breast = test system: MDA-MB-231 breast
SN12C renal = test system: SN12C renal
K-562 leukemia = test system: K-562 leukemia
CAKI-1 renal = test system: CAKI-1 renal
RPMI-8226 leukemia = test system: RPMI-8226 leukemia

Row | Compound | TGI (HL-60(TB) leukemia) [µM] | TGI (A498 renal) [µM] | TGI (HT29 colon) [µM] | TGI (RXF 393 renal) [µM] | TGI (SK-MEL-5 melanoma) [µM] | TGI (MDA-MB-231 breast) [µM] | TGI (SN12C renal) [µM] | TGI (K-562 leukemia) [µM] | TGI (CAKI-1 renal) [µM] | GI50 (HL-60(TB) leukemia) [µM] | GI50 (RPMI-8226 leukemia) [µM] | TGI (RPMI-8226 leukemia) [µM] | GI50 (A498 renal) [µM] | GI50 (RXF 393 renal) [µM] | GI50 (MDA-MB-231 breast) [µM] | GI50 (SN12C renal) [µM] | GI50 (K-562 leukemia) [µM] | GI50 (CAKI-1 renal) [µM] | GI50 (HT29 colon) [µM] | GI50 (SK-MEL-5 melanoma) [µM]
1 | CN1c2ccccc2S(=O)(=O)n2c(CCc3ccccc3)nnc21 | > 100 | > 100 | > 100 | > 100 | > 100 | > 100 | > 100 | > 100 | > 100 | – | – | – | – | – | – | – | – | – | – | –
2 | CC[C@H](Nc1nc(N)nc(C2CC2)c1C#N)c1nc2cccc(NCc3ccc(C(=O)NO)cc3)c2c(=O)n1-c1ccccc1 | 5.65 | 3.69 | – | 1.99 | – | 3.86 | 5.39 | > 100 | 3.38 | 2.35 | 2.52 | 9.03 | 1.7 | 0.582 | 1.42 | 1.79 | 2.81 | 1.5 | – | –
3 | C[C@]12CC[C@H]3[C@@H](CC[C@]4(O)C[C@@H](O)CC[C@]34CO)[C@@]1(O)CC[C@@H]2C1=CC(=O)OC1 | 8.23 | 5.1 | 7.81 | 1.58 | 5.08 | > 51.3 | 11 | > 100 | – | – | – | 6.83 | – | – | – | – | – | – | – | –
4 | CNCCNc1nc2ccccc2c2c(=O)c3cc(OC)ccc3sc12 | 3.6 | 6.8 | 3.26 | 2.7 | 3.09 | 3.08 | 2.96 | – | 2.97 | 1.9 | 1.62 | 3.41 | 2.12 | 1.39 | 1.54 | 1.5 | – | 1.5 | 1.52 | 1.71
5 | CCCCCCNC(=O)n1cc(F)c(=O)[nH]c1=O | 30.6 | > 100 | 19.3 | 20.3 | 27.1 | 24.5 | 24.3 | – | 18.4 | 6.84 | 2.38 | 32.2 | 18 | 6.22 | 10.2 | 4.29 | – | 1.64 | 2.43 | 3.54
6 | Cc1nn(CNc2ccccc2C(F)(F)F)c(=S)n1/N=C/c1ccc(F)cc1 | > 100 | > 100 | > 100 | > 100 | > 100 | > 100 | – | > 100 | > 100 | 91.9 | 48.5 | > 100 | > 100 | > 100 | 25.9 | – | 89.4 | > 100 | 42.1 | > 100
